Measurements taken from patent US4180578A, “2,4-Diamino-5-(4'-methylthio)benzylpyrimidenes, compounds, compositions and method of use” (Ludwig Heumann, & Co. GmbH, priority 1977, dated 1979).
In brackets after ≈: the same amount, converted by molar mass.

Legend:
in vivo = details: po, mouse, intragastral, safety limits p = 0.05 printed for TMP: lower 2105.5, upper 3629.8
Description: 2,4-diamino-5-(3',5'-dimethoxy-4'-S-methyl)-
benzylpyrimidine (mouse, intragastral administration) (determined
according to J.T. Litchfield and F. Wilcoxon in "J. Pharmacol.

Proteus = experiment: MIC, serial dilution test, DST-Agar; assay type: cell-based; details: n = 3, DST-Agar, read-out: Geometrical mean value of MIC
Description: (§1) MIC values in μg/ml (serial dilution test, DST-Agar)
(§2) Geometrical mean value of MIC in μg/ml

Enterococcus = experiment: MIC, serial dilution test, DST-Agar; assay type: cell-based; details: n = 2, DST-Agar, read-out: Geometrical mean value of MIC
Description: as §1, §2

E. Coli = experiment: MIC, serial dilution test, DST-Agar; assay type: cell-based; details: Escherichia coli, n = 15, DST-Agar, read-out: Geometrical mean value of MIC
Description: as §1, §2

Klebsiellae = experiment: MIC, serial dilution test, DST-Agar; assay type: cell-based; details: n = 3, DST-Agar, read-out: Geometrical mean value of MIC
Description: as §1, §2

Serum level, rat = assay type: in vivo; details: po, 50 mg/kg i.g.
Protocol: |Serum level, rat (50 mg/kg i.g.)

Row | Structure (SMILES) | LD50 (in vivo) [mg/kg] | MIC (Proteus) [µg/mL] | MIC (Enterococcus) [µg/mL] | MIC (E. Coli) [µg/mL] | MIC (Klebsiellae) [µg/mL] | concentration at 0.5 h (Serum level, rat) [ng/mL] | concentration at 1 h (Serum level, rat) [ng/mL]
1 | COc1cc(Cc2cnc(N)nc2N)cc(OC)c1SC [2,4-diamino-5-(3',5-dimethoxy-4'-methylthio)-benzylpyrimidine] | > 5000 | 0.992 (≈ 3.24 µM) | 0.156 (≈ 0.509 µM) | 0.142 (≈ 0.463 µM) | 0.248 (≈ 0.809 µM) | 5000 | 2700
2 | COc1cc(Cc2cnc(N)nc2N)cc(OC)c1OC [TMP, 2,4-diamino-5-(3'4',5'-trimethoxybenzyl)-pyrimidine] | 2760 | 0.625 (≈ 2.15 µM) | 0.078 (≈ 0.269 µM) | 0.108 (≈ 0.372 µM) | 0.496 (≈ 1.71 µM) | 4500 | 3300
